Target: topoisomerase II
Assay: topoisomerase II activity inhibition assay (isoform not given)
Assay type: biochemical

Compound: CC[C@@]1(O)C(=O)OCc2c1cc1n(c2=O)Cc2cc3ccccc3nc2-1 [camptothecin]
- IC50: 0.52 nM

From article PMC10768243 (Microbial Cell Factories, 2024)
